The source of these data is patent publication US20050153870A1, “Medicinal composition for diagnosis, prevention, or therapy of multiple risk factor syndrome” (priority 2002, published 2005).

One assay deals with C57BL/Ksj-db/db mice. Nature of the assay: AS-6 in feed to db/db mice (Example 4). The format is in vivo, mouse. The following applies: 0.1% in feed, 1 week. Here is the method:
C57BL/Ksj-db/db mice, which were model animals of multiple risk factor syndrome, were raised for a week with powered feed containing an ascochlorin derivative, 4-O-carboxymethylascochlorin (AS-6), in a content of 0.1%. Thereafter, the weight, blood sugar, blood insulin, and blood neutral fat were measured.

The subject of another assay is Zucker rats. Put plainly: Blood pressure of Zucker rat (Example 8). The format is in vivo. The following applies: for blood pressure, change vs Zucker control group / blood pressure: 0.1% in feed; for blood pressure: AS-6 group at 0th week 144 ± 6. On the procedure: Zucker rats were raised for 4 weeks with feed in which 4-0-carboxylmethyl ascochlorin (AS-6) was mixed in a content of 0.1%. At the 0th, 2nd and 4th week of initiation of feeding, blood pressure was measured (6 rats/group).

Molecules are shown by their SMILES. Marks after values point to notes of the source that are not given here.

Regarding `CC(C=CC1(C)C(C)CCC(=O)C1C)=CCc1c(O)c(C=O)c(C)c(Cl)c1OCC(=O)O` (stereo not shown) [AS-6, 4-O-carboxymethylascochlorin], in the assay with C57BL/Ksj-db/db mice, the “Blood sugar, change vs db/db control group” value is on record as −30.0%**; the “Body weight, change vs db/db control group” value is “ns”; the “Cholesterol, change vs db/db control group” value is “ns”; the “Free fatty acid, change vs db/db control group” value is on record as −21.1%**. In the assay with C57BL/Ksj-db/db mice, the “Insulin, change vs db/db control group” value is listed as “ns” and the “Neutral fat, change vs db/db control group” value is −38.3%**. In addition, in the assay with C57BL/Ksj-db/db mice (db/db control 1.164 ± 0.03), the Free fatty acid is 0.918 ± 0.1 mEq/L. In the assay with C57BL/Ksj-db/db mice (db/db control 31.0 ± 3.6), the Insulin is recorded as 34.6 ± 3.5 μU/mL. For the same compound, the Body weight in the assay on C57BL/Ksj-db/db mice (db/db control 52.9 ± 0.8) is on record as 56.3 ± 1.2 g. Further, the Cholesterol in the assay with C57BL/Ksj-db/db mice (db/db control 109.9 ± 3.3) was determined as 114.4 ± 4.3 mg/dL. The Neutral fat in the assay on C57BL/Ksj-db/db mice (db/db control 378.5 ± 19.3) came out at 223.5 ± 17.7 mg/dL. Besides, the blood sugar in the assay with C57BL/Ksj-db/db mice (db/db control 637.3 ± 28.9) worked out at 445.8 ± 32.5 mg/dL. Also, in the assay with C57BL/Ksj-db/db mice (db/db mice), the “blood sugar, blood free fatty acid, and blood neutral fat” value was “significantly reduced”. In addition, the “blood pressure, change vs Zucker control group” value with Zucker rats (2nd week) is listed as −13.7%(**). Also, the blood pressure with Zucker rats (2nd week, Zucker control 153 ± 6) came out at 132 ± 5. For the same compound, the “blood pressure, change vs Zucker control group” value in the assay with Zucker rats (4th week) is reported as −19.9%(**). The compound also yielded a blood pressure with Zucker rats (4th week, Zucker control 156 ± 7) of 125 ± 6. In the assay on Zucker rats (2nd week after the initiation of feeding), the “decrease in blood pressure in comparison with the Zucker control group” value is on record as 13.7%. Besides, the “decrease in blood pressure in comparison with the Zucker control group” value in the assay with Zucker rats (4th week after the initiation of feeding) turned out to be 19.9%.
